The values below come from publication PMC12048447, “PANTAX: a phase Ib clinical trial of the efflux pump inhibitor SCO-101 in combination with gemcitabine and nab-paclitaxel in non-resectable or metastatic pancreatic cancer” (Investigational New Drugs, 2025).

Series [1] in a line: PANTAX phase Ib: plasma pharmacokinetics of SCO-101. Type of series: in vivo, human. On the procedure:
Pharmacokinetics (PK) blood samples were drawn during the first cycle of treatment on day one of SCO-101 administration (6 time points), on day six (6 time points), and on day nine (72 h after last SCO-101 treatment). Plasma samples were analyzed for SCO-101 using a bioanalytical method (BM/2020/0998) developed and validated under study KF64YR at LabCorp (England). SCO-101 was extracted from human plasma by protein precipitation and analyzed by liquid chromatography using tandem mass spectrometry (LC–MS/MS). Pharmacokinetic parameters were determined by noncompartmental analysis using the software package SAS (version 9.4 or higher). The PK profile of SCO-101 was evaluated by maximum drug plasma concentration (Cmax) and area under the plasma drug concentration–time curve (AUC0 to 8 h).

The test system of series [2] is patients with non-resectable or metastatic PDAC. Nature of the series: PANTAX phase Ib: efficacy (RECIST v1.1, PFS, OS, Ca 19-9). In kind it is in vivo, human. As to conditions: SCO-101 with Gem and Nab. From the text:
The PANTAX trial was a prospective, international multicenter phase Ib open-label, non-randomized, dose-escalation study aiming to determine the MTD, safety, and tolerability of SCO-101 when combined with Gem and Nab in patients with non-resectable or metastatic PDAC (Protocol nr. SCO101-002, EudraCT nr. 2020–002627-11; ClinicalTrials.gov identifier NCT04652206). Furthermore, the study aimed to establish the pharmacokinetic profile of SCO-101 in combination with Gem and Nab. ORR, clinical benefit rate (CBR), median progression free survival (mPFS), and mOS were included as secondary end points.
Tumor evaluation by CT and MRI scans were done every 8 weeks. Response was determined according to RECIST v 1.1 [21] by local assessment. ORR was determined as the percentage of evaluable patients experiencing a complete response (CR) or partial response (PR). CBR was determined as the percentage of evaluable patients experiencing response or stable disease (SD) for over 16 weeks. Date of study inclusion was the index date. For assessment of PFS, the date of PD was the date of imaging showing progression or date of last treatment in patients with deteriorating clinical condition. Patients not followed until progression were censored for PFS at the date of last follow-up. One patient was lost to follow-up for survival and was censored from OS analysis on the date of last visit. End of study was 6 months after the last patients last treatment visit.

Details of series [3]: method as in PMID 32628359. The conditions noted are these: healthy volunteers, cited from earlier work.
The subject of the next series is wild-type PANC-1 cells. Nature of the series: Crystal violet combination assay in wild-type PANC-1 cells. In kind it is cell-based, human. The conditions noted are these: 120 h drug incubation. On the procedure:
For the crystal violet assay, cells were seeded into 6-well plates at a density of 40,000 cells/well or into 48-wells with 4000 cells/well. One day after seeding, the cells were experimentally treated. Control conditions consisted of either growth medium (‘untreated’) or DMSO diluted in growth medium. All treatments were performed in triplicates. The cells were then kept in the CO2 incubator at 37 °C until staining with crystal violet dye for 10mins and let to dry overnight. The following day crystal violet dye was dissolved using 20% acetic acid and absorbance was measured at 570 nm.
Experiments with 4 different concentrations of either SCO-101 or paclitaxel and their combinations were applied to test for synergy among these two compounds in both the PANC-1 parental and -Paclitaxel resistant cells. […] The SRPK1 inhibitor SPHINX31 was tested at 0.1; 0.5; 1 and 5 µM. The SRPK1 inhibitor SRPIN was tested at 1; 5; 10 and 50 µM. Both inhibitors were tested in combination with 5, 10, 15 and 20 nM Paclitaxel.
A) the resistant PANC-1-Pac and B) the sensitive parental PANC-1 cell lines. Cells were either 1) untreated, 2) incubated with 30µM SCO-101, 3) 40µM SCO-101, 4) 4nM paclitaxel, 5) 30µM SCO-101 + 4nM paclitaxel or 6) 40µM SCO-101 + 4nM paclitaxel. Drug incubation for 120 hours was followed by staining with crystal violet.

On to `O=C(Nc1cc(C(F)(F)F)cc(C(F)(F)F)c1)Nc1ccc(Br)cc1-c1nnn[nH]1` [SCO-101], for which, in series [1] (50-250 mg daily, Cmax and AUC0-8 h), the “increase in exposure with dose” value is reported as “approximately dose proportional”. For the same molecule, the “fraction of SCO-101 Cmax present at day 9” value in series [1] (average, 200 mg and 250 mg doses, 72 h after last SCO-101 treatment) was 33%. In addition, the “accumulation of Cmax and AUC0-8 h” value in series [1] (daily doses for 6 consecutive days, plasma, patients) is reported as “two- to threefold”. In addition, in series [2] (15 patients with elevated Ca 19-9 at treatment initiation), the “patients with reduction of serum Ca 19-9 of at least 25%” value turned out to be 53%. The “objective response rate (ORR)” value in series [2] (15 evaluable patients) turned out to be 6.7%. For the same molecule, the “median progression-free survival (mPFS)” value in series [2] (CI 1.7-9.2 months) came out at 3.3 months. Besides, the “median overall survival (mOS)” value in series [2] (CI 5.7-16 months) came out at 9.5 months. The “clinical benefit rate (CBR)” value in series [2] (response or SD over 16 weeks, 15 evaluable patients) is given as 33%. The “individuals who developed clinical jaundice” value in series [3] (150 mg dose cohort) is recorded as “Two”. In addition, the adverse events result in series [3] (single doses up to 200 mg or multiple doses up to 150 mg daily for 14 days) is “mild adverse events (AEs) and no serious adverse events (SAEs)”. Further, the “combination effect of SCO-101 and paclitaxel” value in the series on wild-type PANC-1 cells was “no combination effect”.
